PubChem BioAssay AID1963833 (Molecular Pharmacology Branch, DTP, NCI, 2024)

Test system: 883617-216-R-J1-PDC complex spheroid viability
Assay: Anticancer human tumor 883617-216-R-J1-PDC patient-derived bladder carcinoma cell line growth inhibition [POLQ]
Settings: for IC50: curve of first compound; for viability, T/C: stronger effect = lower value
In short: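 Three-cell-type spheroids modelling solid tumor plus stroma served as the readout system; POL inhibitors were tested individually and in combination, concentration ranges set by clinical Cmax where known.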

[1] = second compound 0.0316 µM, first compound 0.0316 µM
[2] = second compound 0.0316 µM, first compound 0.1 µM
[3] = second compound 0.0316 µM, first compound 0.316 µM
[4] = second compound 0.0316 µM, first compound 1 µM
[5] = second compound 0.1 µM, first compound 0.0316 µM
[6] = second compound 0.1 µM, first compound 0.1 µM
[7] = second compound 0.1 µM, first compound 0.316 µM
[8] = second compound 0.1 µM, first compound 1 µM
[9] = second compound 0.316 µM, first compound 0.0316 µM
[10] = second compound 0.316 µM, first compound 0.1 µM
[11] = second compound 0.316 µM, first compound 0.316 µM
[12] = second compound 0.316 µM, first compound 1 µM
[13] = second compound 1 µM, first compound 0.0316 µM
[14] = second compound 1 µM, first compound 0.1 µM
[15] = second compound 1 µM, first compound 0.316 µM
[16] = second compound 1 µM, first compound 1 µM
[17] = second compound 3.16 µM, first compound 0.0316 µM
[18] = second compound 3.16 µM, first compound 0.1 µM
[19] = second compound 3.16 µM, first compound 0.316 µM
[20] = second compound 3.16 µM, first compound 1 µM
[21] = second compound 10 µM, first compound 0.0316 µM
[22] = second compound 10 µM, first compound 0.1 µM
[23] = second compound 10 µM, first compound 0.316 µM
[24] = second compound 10 µM, first compound 1 µM
[25] = second compound 0.0316 µM, first compound 0.00316 µM
[26] = second compound 0.0316 µM, first compound 0.01 µM
[27] = second compound 0.1 µM, first compound 0.00316 µM
[28] = second compound 0.1 µM, first compound 0.01 µM
[29] = second compound 0.316 µM, first compound 0.00316 µM
[30] = second compound 0.316 µM, first compound 0.01 µM
[31] = second compound 1 µM, first compound 0.00316 µM
[32] = second compound 1 µM, first compound 0.01 µM
[33] = second compound 3.16 µM, first compound 0.00316 µM
[34] = second compound 3.16 µM, first compound 0.01 µM
[35] = second compound 10 µM, first compound 0.00316 µM
[36] = second compound 10 µM, first compound 0.01 µM
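Also: spheroids exposed to compounds for seven days before readout.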
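For viability, T/C in this document: 100% = DMSO vehicle control viability.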

Molecule `CNCc1ccc(-c2[nH]c3cc(F)cc4c3c2CCNC4=O)cc1` + Nc1ccc(C#CCN(C(=O)Cc2ncc(C(F)(F)F)cc2C(F)(F)F)c2ccc(F)cc2)nn1 has an IC50 (second compound 0.0316 µM) of over 10000 nM, an IC50 (second compound 0.1 µM) of over 10000 nM and an IC50 (second compound 0.316 µM) of over 10000 nM. The IC50 (second compound 1 µM) was over 10000 nM, the IC50 (second compound 3.16 µM) was over 10000 nM and the IC50 (second compound 10 µM) was over 10000 nM. It also gave a viability, T/C [1] of 93.8%, a viability, T/C [2] of 86.4% and a viability, T/C [3] of 83.8%. The viability, T/C [4] was 101%, the viability, T/C (second compound 0.0316 µM, first compound 3.16 µM) was 110% and the viability, T/C (second compound 0.0316 µM, first compound 10 µM) was 92.1%. For the same molecule, the viability, T/C [5] was 96.9%, the viability, T/C [6] was 79.8% and the viability, T/C [7] was 96.8%. It also gave a viability, T/C [8] of 107%, a viability, T/C (second compound 0.1 µM, first compound 3.16 µM) of 102% and a viability, T/C (second compound 0.1 µM, first compound 10 µM) of 95.2%. It also gave a viability, T/C [9] of 104%, a viability, T/C [10] of 81.3% and a viability, T/C [11] of 88.4%. For the same molecule, the viability, T/C [12] was 96.8%, the viability, T/C (second compound 0.316 µM, first compound 3.16 µM) was 104% and the viability, T/C (second compound 0.316 µM, first compound 10 µM) was 89.8%. It also gave a viability, T/C [13] of 95.5%, a viability, T/C [14] of 105% and a viability, T/C [15] of 106%. It also gave a viability, T/C [16] of 113%, a viability, T/C (second compound 1 µM, first compound 3.16 µM) of 104% and a viability, T/C (second compound 1 µM, first compound 10 µM) of 76.1%. The viability, T/C [17] was 92.4%, the viability, T/C [18] was 102% and the viability, T/C [19] was 91.7%. The viability, T/C [20] was 103%, the viability, T/C (second compound 3.16 µM, first compound 3.16 µM) was 102% and the viability, T/C (second compound 3.16 µM, first compound 10 µM) was 98.1%. It also gave a viability, T/C [21] of 116%, a viability, T/C [22] of 107% and a viability, T/C [23] of 120%. The viability, T/C [24] was 101%, the viability, T/C (second compound 10 µM, first compound 3.16 µM) was 127% and the viability, T/C (second compound 10 µM, first compound 10 µM) was 102%.

Work on `COc1cccc(OCCCN)c1-c1cc(Nc2cnc(C#N)cn2)n[nH]1` + Nc1ccc(C#CCN(C(=O)Cc2ncc(C(F)(F)F)cc2C(F)(F)F)c2ccc(F)cc2)nn1 yielded an IC50 (second compound 0.0316 µM) of 77.4 nM, an IC50 (second compound 0.1 µM) of 47.2 nM and an IC50 (second compound 0.316 µM) of 87.1 nM. The IC50 (second compound 1 µM) was 120 nM, the IC50 (second compound 3.16 µM) was 73.3 nM and the IC50 (second compound 10 µM) was 85.6 nM. For the same molecule, the viability, T/C [25] was 111%, the viability, T/C [26] was 77% and the viability, T/C [1] was 67%. It also gave a viability, T/C [2] of 42.8%, a viability, T/C [3] of 37.7% and a viability, T/C [4] of 35.4%. It also gave a viability, T/C [27] of 96.9%, a viability, T/C [28] of 95.6% and a viability, T/C [5] of 55.2%. For the same molecule, the viability, T/C [6] was 43.6%, the viability, T/C [7] was 41.4% and the viability, T/C [8] was 33.7%. The viability, T/C [29] was 99.3%, the viability, T/C [30] was 91.3% and the viability, T/C [9] was 57.4%. The viability, T/C [10] was 52.6%, the viability, T/C [11] was 40.8% and the viability, T/C [12] was 31.9%. For the same molecule, the viability, T/C [31] was 95.3%, the viability, T/C [32] was 78.2% and the viability, T/C [13] was 64.8%. The viability, T/C [14] was 53%, the viability, T/C [15] was 40% and the viability, T/C [16] was 28.6%. It also gave a viability, T/C [33] of 85.9%, a viability, T/C [34] of 89.8% and a viability, T/C [17] of 67.1%. It also gave a viability, T/C [18] of 39.5%, a viability, T/C [19] of 47.1% and a viability, T/C [20] of 44.5%. It also gave a viability, T/C [35] of 109%, a viability, T/C [36] of 89.8% and a viability, T/C [21] of 63.6%. For the same molecule, the viability, T/C [22] was 48.8%, the viability, T/C [23] was 39.5% and the viability, T/C [24] was 36.2%.

In the case of `Cn1ncnc1[C@H]1c2n[nH]c(=O)c3cc(F)cc(c23)N[C@@H]1c1ccc(F)cc1` + Nc1ccc(C#CCN(C(=O)Cc2ncc(C(F)(F)F)cc2C(F)(F)F)c2ccc(F)cc2)nn1, the IC50 (second compound 0.0316 µM) is reported as over 100 nM, the IC50 (second compound 0.1 µM) is reported as over 100 nM and the IC50 (second compound 0.316 µM) is reported as over 100 nM. For the same molecule, the IC50 (second compound 1 µM) was over 100 nM, the IC50 (second compound 3.16 µM) was over 100 nM and the IC50 (second compound 10 µM) was over 100 nM. The viability, T/C (second compound 0.0316 µM, first compound 0.000316 µM) was 87.9%, the viability, T/C (second compound 0.0316 µM, first compound 0.001 µM) was 94.4% and the viability, T/C [25] was 99.1%. For the same molecule, the viability, T/C [26] was 82.4%, the viability, T/C [1] was 72% and the viability, T/C [2] was 78.9%. The viability, T/C (second compound 0.1 µM, first compound 0.000316 µM) was 93.8%, the viability, T/C (second compound 0.1 µM, first compound 0.001 µM) was 97.5% and the viability, T/C [27] was 97.7%. For the same molecule, the viability, T/C [28] was 79.7%, the viability, T/C [5] was 85.4% and the viability, T/C [6] was 80.7%. For the same molecule, the viability, T/C (second compound 0.316 µM, first compound 0.000316 µM) was 82.9%, the viability, T/C (second compound 0.316 µM, first compound 0.001 µM) was 111% and the viability, T/C [29] was 91.9%. It also gave a viability, T/C [30] of 87.9%, a viability, T/C [9] of 83% and a viability, T/C [10] of 77.5%. The viability, T/C (second compound 1 µM, first compound 0.000316 µM) was 91.9%, the viability, T/C (second compound 1 µM, first compound 0.001 µM) was 94.4% and the viability, T/C [31] was 104%. The viability, T/C [32] was 93.1%, the viability, T/C [13] was 84.5% and the viability, T/C [14] was 81.8%. For the same molecule, the viability, T/C (second compound 3.16 µM, first compound 0.000316 µM) was 101%, the viability, T/C (second compound 3.16 µM, first compound 0.001 µM) was 112% and the viability, T/C [33] was 90.2%. It also gave a viability, T/C [34] of 109%, a viability, T/C [17] of 86% and a viability, T/C [18] of 67.8%. It also gave a viability, T/C (second compound 10 µM, first compound 0.000316 µM) of 100%, a viability, T/C (second compound 10 µM, first compound 0.001 µM) of 102% and a viability, T/C [35] of 102%. The viability, T/C [36] was 95.8%, the viability, T/C [21] was 118% and the viability, T/C [22] was 92.2%.
